Measurements: patent US20250041277A1, “METHODS AND DOSING REGIMENS COMPRISING A CDK2 INHIBITOR AND A CDK4 INHIBITOR FOR TREATING CANCER” (PFIZER INC., priority 2021, published 2025)
Marks after values point to notes of the source that are not given here.

Assays:
ST941 PBR PDX model [1] = test: In vivo efficacy, palbociclib-resistant ST941 PBR PDX model (Example 4); parameters: species or system NSG mice; conditions: ST941PBR, Day 28, PO BID: PF-07104091 120 mpk, PF-07220060 60 mpk, PF-06873600 30 mpk, palbociclib 10 mpk, fulvestrant 10 mpk SC
Experimental: (§1) Female NSG mice (Jackson Lab) were subcutaneously implanted with fragment (27 mm^3 to 64 mm^3 size) into the dorsal region. All mice for HCC1428, MCF7 and ST941 PBR studies were supplemented with 8.5 μg/mL estradiol water (β-Estradiol Sigma-Aldrich, cat #E2758-5G) and gave ad libitum till end of study. For the in vivo efficacy studies, tumor volume and body weights were measured twice a week. Tumor volume was calculated using the [(Length×Width×Width)/2)] formula. TGI was calculated as 100*(1−ΔT/ΔC). The ΔC (ΔT) was obtained by subtracting the mean tumor burden in the vehicle (treated) group on the first day of treatment (Day 0) from the mean tumor burden in vehicle (treated) group on the assessment day. Statistical analysis was performed using ANCOVA when the mean tumor volume in vehicle treated mice reached tumor cutoff size.
(§2) We established model in house by continuous treatment of the ST941 PBR tumor bearing mice with PD-0332991 at 50 mg/kg, PO QD plus fulvestrant at 10 mg/kg, SC twice in the first week, then weekly thereafter. To propagate donors for the TGI study, tumors were transplanted to recipient mice. One week after the re-implantation, the recipient mice received continuous treatment with palbociclib plus fulvestrant (dosing schedule described above). After 1 to 2 serial in vivo propagation with the same treatment regimen, the resistant tumors in the range of 700 to 800 mm^3 were re-implanted for a study expansion. The remaining tumor fragments were viably frozen for future use.
The live donor mice were established by implanting ST941 PBR (p13) tumor fragments. Once reaching a range of 700 to 800 mm^3, the donor tumors were subsequently transplanted into secondary recipient mice for a study expansion. To maintain the resistant clones, the ST941 PBR tumor bearing mice were treated with PD-0332991 at 50 mg/kg, PO. QD plus fulvestrant at 10 mg/kg, SC twice in the first week, then weekly afterwards for 10 weeks. The treatment was initiated one week after the implant until day of randomization for study enrollment. […] PF-07104091 (lot 021), PF-07220060 (lot CPo126812-01-SY-5700-01), PF-06873600 (lot 022) and PD-0332991 (lot GR08498) were administered (PO) BID (7 hr apart) while fulvestrant (lot 20160224-2) at 10 mg/kg, SC twice in the first week, then weekly afterwards. All mice received treatment continuously until Day 28. TGI was assessed on Day 28 post first dose.

[2] = test system: HCC1428 breast cancer model; test: In vivo efficacy, HR+/HER2− HCC1428 breast cancer model (Example 4); parameters: species or system NSG mice; conditions: HCC1428, Day 42; PO BID: PF-07104091 120 mpk, PF-07220060 60 mpk, PF-06873600 30 mpk, palbociclib 10 mpk; fulvestrant 10 mpk SC
Experimental: as §1
(§3) The HCC1428 model was established by implanting passage 1 tumor fragments into recipient mice. To establish the HCC1428 donor mice, tumor cells (5×10^6 cell/mouse with 50% Cultrex® Basement Membrane Matrix) were subcutaneously implanted in female NSG mice. Once reaching a range of 700 to 800 mm^3, donor tumors were subsequently transplanted into secondary recipient mice for a study expansion. […] PF-07104091 (lot 022), PF-07220060 (lot CPo126812-01-SY-5700-01), PF-06873600 (lot 022) and PD-0332991 (lot GR08498) were administered (PO) BID (7 hr apart) while fulvestrant (lot 20160224-2) at 10 mg/kg, SC twice in the first week, then weekly afterwards. All mice received treatment continuously until Day 42. TGI was assessed on Day 42 post first dose.

MCF7 breast cancer model = test: In vivo efficacy, HR+/HER2− MCF7 breast cancer model (Example 4); parameters: species or system NSG mice; conditions: MCF7, Day 29; PO BID: PF-07104091 120 mpk, PF-07220060 60 mpk, PF-06873600 30 mpk, palbociclib 10 mpk; fulvestrant 10 mpk SC
Experimental: as §1
as §3, with “MCF7” for “HCC1428”, “donor” for “passage 1”, “29.” for “42.”, “29” for “42”, “dose” for “dose.”

T47D breast cancer model = test: In vivo efficacy, HR+/HER2− T47D breast cancer model (Example 3); parameters: species or system NSG mice; conditions: Day 41, PO BID: PF-07104091 150 mpk, PF-07220060 60 mpk, palbociclib 10 mpk
Experimental: as §1, with “T47D, HCC1428” for “HCC1428, MCF7”
(§4) The T47D model was established by implanting passage 3 tumor fragments into recipient mice. To establish the T47D donor mice, tumor cells (5×10^6 cell/mouse with 50% Cultrex® Basement Membrane Matrix) were subcutaneously implanted in female NSG mice. Once reaching a range of 700 to 800 mm^3, donor tumors were subsequently transplanted into secondary recipient mice for a study expansion. […] PF-07104091 (lot 016), PF-07220060 (lot 019) and PD-0332991 (lot GR08498) were administered (PO.) BID (7 hr apart). All mice received treatment continuously until Day 41. TGI was assessed on Day 41 post first dose.

[3] = test system: NCI-H23 lung adenocarcinoma (LUAD) cells; test: Spheroid growth inhibition (SGI) assay, NCI-H23; format: cell-based; conditions: NCI-H23 spheroids; 30 nM palbociclib, 300 nM PF-07220060, 300 nM PF-07104091; 14 days
Experimental: (§5) NCI-H1792 and NCI-H23 lung adenocarcinoma (LUAD) cells lines were obtained from ATCC and maintained in RPMI 1640 medium supplemented with 10% fetal bovine serum and penicillin-streptomycin as per ATCC guidelines. Cells were maintained in humidified incubator at 37° C. with 5% CO2.
(§6) Spheroid assays were performed in 96 well ultralow attachment plates (ULA-96U) from Nexcelom & Thermo Fisher Scientific. […] To aid spheroid formation, dispensed cells were centrifuged at 220×g for 6 minutes in the ultralow attachment plates and allowed to form compact spheroids for 4 days prior to the initiation of treatment. […] DMSO (0.01%) was used as the vehicle control. DMSO and all compounds were diluted in cell medium. Medium and compounds were replenished twice per week, with 3 and 4-day intervals. Replenishment was executed by aspirating 150 μL of medium per well without disturbing the spheroid and then adding the same volume of premixed medium/compound solution to spheroids. Spheroid diameter was quantified immediately following each medium change twice a week (on every 3rd or 4th day) throughout the duration of the assay.
(§7) Average diameters of tumor spheroids were plotted in GraphPad Prism 8 and the AUC calculated. AUC baseline was determined by the average tumor spheroid diameter at Day 0 in the vehicle (DMSO) controls. Spheroid growth inhibition, or SGI, was calculated as follows: SGI=(1−AUC treatment/AUC DMSO)×100%. SGI for all treatment arms was derived at the timepoint when the vehicle (DMSO) treated spheroids reach their maximal diameter (usually close to 1 mm but this can differ among cell lines); this corresponds to the last time point taken for the vehicle (DMSO) treated spheroids. SEM was calculated based on n=10 to 12 wells per test group.
(§8) Growth of lung adenocarcinoma multicellular tumor spheroids (MCTS) was monitored over time to assess: (i) amplitude of response (SGI) and (ii) duration of response to the CDK4 inhibitor PF-07220060 as a single agent, and in combination with the CDK2 inhibitor PF-07104091.

ST941 PBR PDX model [4] = test: In vivo efficacy, palbociclib-resistant ST941 PBR PDX model (Example 3); parameters: species or system NSG mice; conditions: ST941PBR, Day 28; PO BID: PF-07104091 150 mpk, PF-07220060 60 mpk, palbociclib 10 mpk; fulvestrant 10 mpk SC 2x week 1 then weekly
Experimental: as §1, with “T47D, HCC1428” for “HCC1428, MCF7”
as §2
The live donor mice were established by implanting ST941 PBR (p11) tumor fragments. Once reaching a range of 700 to 800 mm^3, the donor tumors were subsequently transplanted into secondary recipient mice for a study expansion. To maintain the resistant clones, the ST941 PBR tumor bearing mice were treated with PD-0332991 at 50 mg/kg, PO. QD plus fulvestrant at 10 mg/kg, SC twice in the first week, then weekly afterwards for 10 weeks. The treatment was initiated one week after the implant until day of randomization for study enrollment. […] TGI was assessed on Day 28 post first dose.

[5] = test system: NCI-H1792 lung adenocarcinoma (LUAD) cells; test: Spheroid growth inhibition (SGI) assay, NCI-H1792; format: cell-based; conditions: NCI-H1792 spheroids; 30 nM palbociclib, 300 nM PF-07220060, 300 nM PF-07104091; 14 days
Experimental: as §5, §6, §7, §8

[6] = test system: HCC1428 breast cancer model; test: In vivo efficacy, HR+/HER2− HCC1428 breast cancer model (Example 3); parameters: species or system NSG mice; conditions: HCC1428, Day 42; PO BID: PF-07104091 150 mpk, PF-07220060 60 mpk, palbociclib 10 mpk
Experimental: as §1, with “T47D, HCC1428” for “HCC1428, MCF7”
as §4, with “The HCC1428” for “The T47D”, “passage 4” for “passage 3”, “the HCC1428” for “the T47D”, “Day 42.” for “Day 41.”, “Day 42” for “Day 41”

`C[C@@]1(O)CCC[C@H]1n1c(=O)c(C(F)F)cc2cnc(NC3CCN(S(C)(=O)=O)CC3)nc21` [PF-06873600, reference compound] was tested, and the TGI % (ST941 PBR PDX model [1]) was 47^* %, the TGI % (ST941 PBR PDX model [1]; listed as PF-0873600) was 47% and the TGI % [2] was 97%. It also gave a TGI % (MCF7 breast cancer model) of 70%.

For `CC(=O)c1c(C)c2cnc(Nc3ccc(N4CCNCC4)cn3)nc2n(C2CCCC2)c1=O` [palbociclib, reference compound], the TGI % (T47D breast cancer model) was 72^* %, the “SGI (%)” value [3] was 9% and the TGI % (ST941 PBR PDX model [4]) was 15%. For the same compound, the “SGI (%)” value [5] was 54% and the TGI % [6] was 44^* %.
